Results as given in paper PMC8881512 (Nature Communications, 2022).
Where “and” joins values, the source holds several entries; their conditions need not be identical. Identical values can stand only once.

Columns and labels:
STK38/NDR1 = biological target: T1, STK38/NDR1 (Homo sapiens, UniProt Q15208); assay: Kinome profiling; assay type: biochemical; conditions: VT02956 (5 nM), read-out: % enzymatic activity relative to DMSO controls
T1 construct: LATS1/LATS2 enzymes from Signalchem

PKN1/PRK1 = biological target: T2, PKN1/PRK1 (Homo sapiens, UniProt Q16512); assay: Kinome profiling; assay type: biochemical; conditions: VT02956 (5 nM), read-out: % enzymatic activity relative to DMSO controls
T2 construct: LATS1/LATS2 enzymes from Signalchem

CDK9/cyclin T1 = biological target: T3, CDK9/cyclin T1 (Homo sapiens, UniProt P50750); assay: Kinome profiling; assay type: biochemical; conditions: VT02956 (5 nM), read-out: % enzymatic activity relative to DMSO controls
T3 construct: LATS1/LATS2 enzymes from Signalchem

MSK2/RPS6KA4 = biological target: T4, MSK2/RPS6KA4 (Homo sapiens, UniProt O75676); assay: Kinome profiling; assay type: biochemical; conditions: VT02956 (5 nM), read-out: % enzymatic activity relative to DMSO controls
T4 construct: LATS1/LATS2 enzymes from Signalchem

TYK2 = biological target: T5, TYK2 (Homo sapiens, UniProt P29597); assay: Kinome profiling; assay type: biochemical; conditions: VT02956 (5 nM)
T5 construct: LATS1/LATS2 enzymes from Signalchem

PRKX = biological target: T6, PRKX (Homo sapiens, UniProt P51817); assay: Kinome profiling; assay type: biochemical; conditions: VT02956 (5 nM), read-out: % enzymatic activity relative to DMSO controls
T6 construct: LATS1/LATS2 enzymes from Signalchem

4T1 cells = assay: Cell viability, 4T1; assay type: cell-based
FER = biological target: T7, FER (Homo sapiens, UniProt P16591); assay: Kinome profiling; assay type: biochemical; conditions: VT02956 (5 nM), read-out: % enzymatic activity relative to DMSO controls
T7 construct: LATS1/LATS2 enzymes from Signalchem

PHKg2 = biological target: T8, PHKg2 (Homo sapiens, UniProt P15735); assay: Kinome profiling; assay type: biochemical; conditions: VT02956 (5 nM), read-out: % enzymatic activity relative to DMSO controls
T8 construct: LATS1/LATS2 enzymes from Signalchem

PKAcg = biological target: T9, PKAcg (Homo sapiens, UniProt P22612); assay: Kinome profiling; assay type: biochemical; conditions: VT02956 (5 nM), read-out: % enzymatic activity relative to DMSO controls
T9 construct: LATS1/LATS2 enzymes from Signalchem

PKMYT1 = biological target: T10, PKMYT1 (Homo sapiens, UniProt Q99640); assay: Kinome profiling; assay type: biochemical; conditions: VT02956 (5 nM)
T10 construct: LATS1/LATS2 enzymes from Signalchem

COT1/MAP3K8 = biological target: T11, COT1/MAP3K8 (Homo sapiens, UniProt P41279); assay: Kinome profiling; assay type: biochemical; conditions: VT02956 (5 nM), read-out: % enzymatic activity relative to DMSO controls
T11 construct: LATS1/LATS2 enzymes from Signalchem

STK38L/NDR2 = biological target: T12, STK38L/NDR2 (Homo sapiens, UniProt Q9Y2H1); assay: Kinome profiling; assay type: biochemical; conditions: VT02956 (5 nM), read-out: % enzymatic activity relative to DMSO controls
T12 construct: LATS1/LATS2 enzymes from Signalchem

RIPK2 = biological target: T13, RIPK2 (Homo sapiens, UniProt O43353); assay: Kinome profiling; assay type: biochemical; conditions: VT02956 (5 nM), read-out: % enzymatic activity relative to DMSO controls
T13 construct: LATS1/LATS2 enzymes from Signalchem

CAMKK1 = biological target: T14, CAMKK1 (Homo sapiens, UniProt Q8N5S9); assay: Kinome profiling; assay type: biochemical; conditions: VT02956 (5 nM), read-out: % enzymatic activity relative to DMSO controls
T14 construct: LATS1/LATS2 enzymes from Signalchem

NEK11 = biological target: T15, NEK11 (Homo sapiens, UniProt Q8NG66); assay: Kinome profiling; assay type: biochemical; conditions: VT02956 (5 nM), read-out: % enzymatic activity relative to DMSO controls
T15 construct: LATS1/LATS2 enzymes from Signalchem

p70S6K/RPS6KB1 = biological target: T16, p70S6K/RPS6KB1 (Homo sapiens, UniProt P23443); assay: Kinome profiling; assay type: biochemical; conditions: VT02956 (5 nM), read-out: % enzymatic activity relative to DMSO controls
T16 construct: LATS1/LATS2 enzymes from Signalchem

PKA = biological target: T17, PKA (Homo sapiens, UniProt P17612); assay: Kinome profiling; assay type: biochemical; conditions: VT02956 (5 nM), read-out: % enzymatic activity relative to DMSO controls
T17 construct: LATS1/LATS2 enzymes from Signalchem

CK2a2 = biological target: T18, CK2a2 (Homo sapiens, UniProt P19784); assay: Kinome profiling; assay type: biochemical; conditions: VT02956 (5 nM), read-out: % enzymatic activity relative to DMSO controls
T18 construct: LATS1/LATS2 enzymes from Signalchem

IKKb/IKBKB = biological target: T19, IKKb/IKBKB (Homo sapiens, UniProt O14920); assay: Kinome profiling; assay type: biochemical; conditions: VT02956 (5 nM), read-out: % enzymatic activity relative to DMSO controls
T19 construct: LATS1/LATS2 enzymes from Signalchem

RSK1 = biological target: T20, RSK1 (Homo sapiens, UniProt Q15418); assay: Kinome profiling; assay type: biochemical; conditions: VT02956 (5 nM), read-out: % enzymatic activity relative to DMSO controls
T20 construct: LATS1/LATS2 enzymes from Signalchem

CK2a = biological target: T21, CK2a (Homo sapiens, UniProt P68400); assay: Kinome profiling; assay type: biochemical; conditions: VT02956 (5 nM), read-out: % enzymatic activity relative to DMSO controls
T21 construct: LATS1/LATS2 enzymes from Signalchem

SNRK = biological target: T22, SNRK (Homo sapiens, UniProt Q9NRH2); assay: Kinome profiling; assay type: biochemical; conditions: VT02956 (5 nM), read-out: % enzymatic activity relative to DMSO controls
T22 construct: LATS1/LATS2 enzymes from Signalchem

CDK9/cyclin T2 = biological target: T23, CDK9/cyclin T2 (Homo sapiens, UniProt P50750); assay: Kinome profiling; assay type: biochemical; conditions: VT02956 (5 nM), read-out: % enzymatic activity relative to DMSO controls
T23 construct: LATS1/LATS2 enzymes from Signalchem

[1] = system: Phospho-YAP (Ser127) in HEK293A cells; assay: Cellular Phospho-YAP HTRF assay, HEK293A; assay type: cell-based; conditions: for YAP phosphorylation: 293A, Fig.5d
Procedure: Compound inhibition of […] YAP phosphorylation were performed based on commercial Phospho-YAP (Ser127) kit (Cisbio). In brief, HEK293A cells at 80%-100% confluence was rinsed with PBS, digested in 0.25% Trypsin-EDTA and centrifuged at 1000 × g for 3 min. The cell pellet was resuspended with appropriate volume of serum-free medium, counted using automated cell counter (Invitrogen), adjusted to a working density of 2.9 × 10^6/ml and dispensed into 384-well small volume white plate (Greiner) at 12 μl/well (3.5 × 10^4 cells) using Thermo Multidrop Combi microplate dispenser. At the time of detection, 36 nl DMSO contain 3-fold serial diluted compounds ranging from 10,000 to 4.6 nM were added into designed wells by Eco system and incubated at 37 °C for 120 min. Cell were lysed by adding 4 μl lysis buffer (4x), and incubated for 45 min at room temperature under shaking. HTRF reaction was performed by adding 4 μl of premixed phospho-YAP Cryptate antibody/Phospho-YAP d2 antibody solution prepared in the detection buffer and incubate at room temperature overnight. […] The compound inhibition was calculated by the formula, inhibition % = ([…]) × 100/ (HPE−ZPE). HPE represent 100% effect and ZPE is 0% effect. The data processing procedures were similar as in vitro LATS kinase inhibition assay.

CAMK2d = biological target: T24, CAMK2d (Homo sapiens, UniProt Q13557); assay: Kinome profiling; assay type: biochemical; conditions: VT02956 (5 nM), read-out: % enzymatic activity relative to DMSO controls
T24 construct: LATS1/LATS2 enzymes from Signalchem

[2] = system: ERα, YAP/TAZ phosphorylation in MCF-7 cells; assay: Immunoblot analysis, MCF-7 cells; assay type: cell-based, human; conditions: MCF-7; 0.1, 0.5 and 2 μM for 2 days; Fig. 5f
CHK1 = biological target: T25, CHK1 (Homo sapiens, UniProt O14757); assay: Kinome profiling; assay type: biochemical; conditions: VT02956 (5 nM)
T25 construct: LATS1/LATS2 enzymes from Signalchem

EPHA3 = biological target: T26, EPHA3 (Homo sapiens, UniProt P29320); assay: Kinome profiling; assay type: biochemical; conditions: VT02956 (5 nM), read-out: % enzymatic activity relative to DMSO controls
T26 construct: LATS1/LATS2 enzymes from Signalchem

PKN3/PRK3 = biological target: T27, PKN3/PRK3 (Homo sapiens, UniProt Q6P5Z2); assay: Kinome profiling; assay type: biochemical; conditions: VT02956 (5 nM)
T27 construct: LATS1/LATS2 enzymes from Signalchem

JAK1 = biological target: T28, JAK1 (Homo sapiens, UniProt P23458); assay: Kinome profiling; assay type: biochemical; conditions: VT02956 (5 nM)
T28 construct: LATS1/LATS2 enzymes from Signalchem

BTK = biological target: T29, BTK (Homo sapiens, UniProt Q06187); assay: Kinome profiling; assay type: biochemical; conditions: VT02956 (5 nM)
T29 construct: LATS1/LATS2 enzymes from Signalchem

T20 sequence (Q15418 whole entry): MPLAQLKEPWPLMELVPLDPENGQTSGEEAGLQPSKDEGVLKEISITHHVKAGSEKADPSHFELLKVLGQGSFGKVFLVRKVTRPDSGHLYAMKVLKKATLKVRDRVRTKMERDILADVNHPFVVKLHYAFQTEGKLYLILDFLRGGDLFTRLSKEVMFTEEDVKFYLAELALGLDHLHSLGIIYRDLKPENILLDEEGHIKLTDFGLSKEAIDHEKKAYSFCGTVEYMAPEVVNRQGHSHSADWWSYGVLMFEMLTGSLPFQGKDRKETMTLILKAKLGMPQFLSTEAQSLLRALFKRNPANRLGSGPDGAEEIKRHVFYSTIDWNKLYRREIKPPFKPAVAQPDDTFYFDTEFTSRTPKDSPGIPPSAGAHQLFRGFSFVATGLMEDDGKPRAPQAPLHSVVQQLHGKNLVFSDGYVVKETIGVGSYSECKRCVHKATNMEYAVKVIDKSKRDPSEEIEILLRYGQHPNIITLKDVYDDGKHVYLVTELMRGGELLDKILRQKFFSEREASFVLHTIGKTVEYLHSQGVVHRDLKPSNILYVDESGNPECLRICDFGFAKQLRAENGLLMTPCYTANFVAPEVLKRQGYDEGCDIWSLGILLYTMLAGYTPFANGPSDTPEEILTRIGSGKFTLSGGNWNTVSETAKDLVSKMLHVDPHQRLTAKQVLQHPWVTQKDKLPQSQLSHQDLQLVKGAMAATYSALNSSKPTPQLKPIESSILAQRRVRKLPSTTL
T22 sequence (Q9NRH2 whole entry): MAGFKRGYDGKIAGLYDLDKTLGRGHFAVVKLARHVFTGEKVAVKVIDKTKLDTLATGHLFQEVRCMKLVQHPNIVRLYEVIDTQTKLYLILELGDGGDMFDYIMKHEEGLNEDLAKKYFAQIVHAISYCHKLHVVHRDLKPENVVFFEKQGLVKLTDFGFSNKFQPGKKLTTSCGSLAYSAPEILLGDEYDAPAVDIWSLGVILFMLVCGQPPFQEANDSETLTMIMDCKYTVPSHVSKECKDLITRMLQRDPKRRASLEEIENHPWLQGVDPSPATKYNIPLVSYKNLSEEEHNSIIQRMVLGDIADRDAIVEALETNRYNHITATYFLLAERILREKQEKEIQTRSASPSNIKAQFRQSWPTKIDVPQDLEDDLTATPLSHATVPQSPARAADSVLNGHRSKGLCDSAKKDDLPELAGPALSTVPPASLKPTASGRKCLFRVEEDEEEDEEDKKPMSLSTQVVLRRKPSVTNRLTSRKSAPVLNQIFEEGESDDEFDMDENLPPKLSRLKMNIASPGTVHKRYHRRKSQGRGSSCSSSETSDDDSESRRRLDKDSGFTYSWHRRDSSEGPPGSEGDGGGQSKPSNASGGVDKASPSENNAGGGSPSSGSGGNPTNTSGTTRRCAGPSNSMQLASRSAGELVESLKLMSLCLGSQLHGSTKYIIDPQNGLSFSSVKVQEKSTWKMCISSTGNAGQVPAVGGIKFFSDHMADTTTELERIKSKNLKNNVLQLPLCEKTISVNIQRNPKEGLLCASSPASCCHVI
T19 sequence (O14920 whole entry): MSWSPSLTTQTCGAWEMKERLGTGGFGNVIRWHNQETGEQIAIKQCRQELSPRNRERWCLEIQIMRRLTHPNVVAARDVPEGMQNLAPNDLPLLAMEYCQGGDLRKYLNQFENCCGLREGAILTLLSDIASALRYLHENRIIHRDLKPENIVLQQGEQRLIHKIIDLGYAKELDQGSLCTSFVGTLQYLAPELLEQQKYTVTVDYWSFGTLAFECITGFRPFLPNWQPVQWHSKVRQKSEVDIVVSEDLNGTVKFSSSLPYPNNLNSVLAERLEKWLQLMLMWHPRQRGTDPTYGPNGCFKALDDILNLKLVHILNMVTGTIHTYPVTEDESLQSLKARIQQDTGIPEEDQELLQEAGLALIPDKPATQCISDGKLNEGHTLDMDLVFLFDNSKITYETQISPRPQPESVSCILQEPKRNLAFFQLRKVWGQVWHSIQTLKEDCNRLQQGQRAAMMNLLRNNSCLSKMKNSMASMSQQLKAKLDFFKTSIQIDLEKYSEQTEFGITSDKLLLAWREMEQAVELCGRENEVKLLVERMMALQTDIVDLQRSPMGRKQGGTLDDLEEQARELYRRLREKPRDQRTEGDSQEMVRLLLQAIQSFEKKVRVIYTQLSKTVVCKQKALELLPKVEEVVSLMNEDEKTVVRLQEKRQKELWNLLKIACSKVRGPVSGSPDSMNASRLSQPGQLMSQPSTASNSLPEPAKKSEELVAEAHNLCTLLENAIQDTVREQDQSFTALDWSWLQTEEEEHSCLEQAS
T14 sequence (Q8N5S9 whole entry): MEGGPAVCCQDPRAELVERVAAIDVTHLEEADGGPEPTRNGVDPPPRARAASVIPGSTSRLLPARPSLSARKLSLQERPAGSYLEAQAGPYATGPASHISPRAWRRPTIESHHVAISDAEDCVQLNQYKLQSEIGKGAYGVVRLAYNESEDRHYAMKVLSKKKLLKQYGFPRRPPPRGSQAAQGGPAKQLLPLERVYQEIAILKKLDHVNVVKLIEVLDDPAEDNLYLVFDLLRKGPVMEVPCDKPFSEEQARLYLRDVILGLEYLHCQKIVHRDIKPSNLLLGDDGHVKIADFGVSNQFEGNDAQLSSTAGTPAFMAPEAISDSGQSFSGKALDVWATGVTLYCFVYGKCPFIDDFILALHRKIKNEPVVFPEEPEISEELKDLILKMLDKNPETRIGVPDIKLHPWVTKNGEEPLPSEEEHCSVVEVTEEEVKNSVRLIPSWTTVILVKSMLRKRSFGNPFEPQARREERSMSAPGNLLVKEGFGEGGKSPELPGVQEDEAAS
T1 sequence (Q15208 whole entry): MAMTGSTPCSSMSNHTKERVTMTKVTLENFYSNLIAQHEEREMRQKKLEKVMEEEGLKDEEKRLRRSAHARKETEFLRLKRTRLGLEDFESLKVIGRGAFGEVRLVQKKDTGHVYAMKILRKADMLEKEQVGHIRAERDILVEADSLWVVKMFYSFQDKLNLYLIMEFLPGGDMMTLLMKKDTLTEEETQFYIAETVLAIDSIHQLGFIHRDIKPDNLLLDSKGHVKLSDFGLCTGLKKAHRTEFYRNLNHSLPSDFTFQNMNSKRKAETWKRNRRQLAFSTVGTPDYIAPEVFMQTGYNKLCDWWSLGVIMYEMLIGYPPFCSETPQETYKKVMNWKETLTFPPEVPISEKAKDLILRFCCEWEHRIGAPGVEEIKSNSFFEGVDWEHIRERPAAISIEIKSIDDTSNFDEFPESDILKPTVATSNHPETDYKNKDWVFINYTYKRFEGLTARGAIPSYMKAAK
T21 sequence (P68400 whole entry): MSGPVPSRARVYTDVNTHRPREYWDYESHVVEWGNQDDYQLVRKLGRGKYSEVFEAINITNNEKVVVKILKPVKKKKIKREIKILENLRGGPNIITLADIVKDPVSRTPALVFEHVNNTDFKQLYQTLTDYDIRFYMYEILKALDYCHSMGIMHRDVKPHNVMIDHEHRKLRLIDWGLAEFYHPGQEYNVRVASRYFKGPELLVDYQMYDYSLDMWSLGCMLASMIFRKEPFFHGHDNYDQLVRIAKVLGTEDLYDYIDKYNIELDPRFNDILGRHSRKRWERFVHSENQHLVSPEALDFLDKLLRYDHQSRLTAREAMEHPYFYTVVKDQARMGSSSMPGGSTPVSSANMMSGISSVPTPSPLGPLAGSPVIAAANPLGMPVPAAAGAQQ
T5 sequence (P29597 whole entry): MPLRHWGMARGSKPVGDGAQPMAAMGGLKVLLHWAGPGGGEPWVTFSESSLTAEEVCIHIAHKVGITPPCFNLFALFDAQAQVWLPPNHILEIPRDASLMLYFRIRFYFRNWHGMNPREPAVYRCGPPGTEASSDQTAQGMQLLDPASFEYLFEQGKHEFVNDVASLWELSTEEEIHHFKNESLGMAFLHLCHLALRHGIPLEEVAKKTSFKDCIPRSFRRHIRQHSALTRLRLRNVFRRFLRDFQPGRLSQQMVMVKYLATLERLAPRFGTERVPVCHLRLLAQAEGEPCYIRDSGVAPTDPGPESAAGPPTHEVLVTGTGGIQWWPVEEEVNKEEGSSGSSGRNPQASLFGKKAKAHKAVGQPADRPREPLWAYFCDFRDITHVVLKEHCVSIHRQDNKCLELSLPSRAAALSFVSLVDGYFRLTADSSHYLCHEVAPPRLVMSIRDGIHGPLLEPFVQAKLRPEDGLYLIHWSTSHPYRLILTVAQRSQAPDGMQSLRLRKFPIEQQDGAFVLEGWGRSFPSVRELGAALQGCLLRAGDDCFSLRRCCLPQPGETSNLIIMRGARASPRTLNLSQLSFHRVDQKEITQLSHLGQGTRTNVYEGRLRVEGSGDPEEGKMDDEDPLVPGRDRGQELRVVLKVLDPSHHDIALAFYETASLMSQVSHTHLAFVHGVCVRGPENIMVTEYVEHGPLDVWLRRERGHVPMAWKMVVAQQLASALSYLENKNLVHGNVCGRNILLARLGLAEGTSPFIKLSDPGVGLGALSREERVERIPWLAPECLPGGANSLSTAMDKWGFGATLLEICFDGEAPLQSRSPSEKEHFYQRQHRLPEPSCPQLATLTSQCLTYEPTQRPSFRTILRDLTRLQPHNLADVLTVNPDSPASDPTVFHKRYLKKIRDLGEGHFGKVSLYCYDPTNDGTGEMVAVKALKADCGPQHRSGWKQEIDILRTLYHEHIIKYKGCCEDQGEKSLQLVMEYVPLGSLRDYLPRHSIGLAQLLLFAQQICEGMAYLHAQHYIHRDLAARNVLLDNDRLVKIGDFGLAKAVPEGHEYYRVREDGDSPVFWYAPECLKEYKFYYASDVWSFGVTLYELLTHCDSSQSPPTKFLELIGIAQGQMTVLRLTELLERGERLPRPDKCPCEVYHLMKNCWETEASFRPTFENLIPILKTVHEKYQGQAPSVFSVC

- remaining activity at 0.005 µM (STK38/NDR1): 16%
- remaining activity at 0.005 µM (PKN1/PRK1): 69%
- remaining activity at 0.005 µM (CDK9/cyclin T1): 80%
- remaining activity at 0.005 µM (MSK2/RPS6KA4): 78%
- % enzymatic activity relative to DMSO controls (TYK2): 78%
- remaining activity at 0.005 µM (PRKX): 3%
- IC50 (4T1 cells; Mus musculus, 4T1 cells, n = 2, read-out: Cell viability inhibition IC50): > 10000 nM
- remaining activity at 0.005 µM (FER): 78%
- remaining activity at 0.005 µM (PHKg2): 82%
- remaining activity at 0.005 µM (PKAcg): 28%
- % enzymatic activity relative to DMSO controls (PKMYT1): 77%
- remaining activity at 0.005 µM (COT1/MAP3K8): 86%
- remaining activity at 0.005 µM (STK38L/NDR2): 29%
- remaining activity at 0.005 µM (RIPK2): 75%
- remaining activity at 0.005 µM (CAMKK1): 83%
- remaining activity at 0.005 µM (NEK11): 82%
- remaining activity at 0.005 µM (p70S6K/RPS6KB1): 38%
- remaining activity at 0.005 µM (PKA): 68%
- remaining activity at 0.005 µM (CK2a2): 78%
- remaining activity at 0.005 µM (IKKb/IKBKB): 86%
- remaining activity at 0.005 µM (RSK1): 86%
- remaining activity at 0.005 µM (CK2a): 85%
- remaining activity at 0.005 µM (SNRK): 86%
- remaining activity at 0.005 µM (CDK9/cyclin T2): 74%
- remaining activity at 0.005 µM (CAMK2d): 77%
- % enzymatic activity relative to DMSO controls (CHK1): 80%
- remaining activity at 0.005 µM (EPHA3): 84%
- % enzymatic activity relative to DMSO controls (PKN3/PRK3): 64%
- % enzymatic activity relative to DMSO controls (JAK1): 82%
- % enzymatic activity relative to DMSO controls (BTK): 83%
SMILES: NCC1CCN(c2nc(-c3ccncc3)nc3c(C#CCO)cccc23)CC1 [VT02956]
- growth of ER negative breast cancer cells 4T1 (cell viability) (4T1 cells; increasing concentrations of VT02956, Supplementary Fig. 8g): does not inhibit the growth
- YAP phosphorylation ([1]; Conc. 0.00457247 (µM)): 88.3714 and 102.283
- YAP phosphorylation ([1]; Conc. 0.0137174 (µM)): 105.168 and 111.221
- YAP phosphorylation ([1]; Conc. 0.0411523 (µM)): 96.441 and 81.638
- YAP phosphorylation ([1]; Conc. 0.123457 (µM)): 73.179 and 42.0107
- YAP phosphorylation ([1]; Conc. 0.37037 (µM)): 20.9423 and 23.4127
- YAP phosphorylation ([1]; Conc. 1.11111 (µM)): 9.018 and 5.767
- IC50 ([1]; HEK293-A, 2 h, HEK293A cells, 120 min, read-out: YAP phosphorylation IC50): 160 nM
- YAP/TAZ dephosphorylation and ERα reduction (immunoblot) [2]: dose-dependently induces YAP/TAZ dephosphorylation and ERα reduction
